Assay [1] addresses T1, HCV NS3 protease (full length NS34a) (Hepatitis C virus genotype 1b, UniProt P26663).
T1 construct: The protease activity of the full length NS34a was measured using a FRET-based assay; made in house
Briefly: HCV NS3 protease assay (FRET, full length NS34a). It counts as biochemical. The conditions noted are these: for inhibition at 0.01 µM: read-out: Activity % inhibition @ 0.01 μM; for inhibition at 0.03 µM: read-out: Activity % inhibition @ 0.03 μM, 0.03 μM compound. The gist of the method: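 FRET readout over 30 minutes at room temperature, with IC50 fitted to initial rates from replicate curves. Enzyme was full-length NS34a; substrate a peptide from the NS4AB cleavage site labelled with QXL520 and 5-FAMsp; buffer 50 mM Tris pH8 containing 20 mM DTT, 1% CHAPS, 10% glycerol and 5% DMSO.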

Assay [2] has as its system HCV subgenomic replicon in Huh-7 cells. Briefly: Replicon assay, EC50 luciferase readout. It counts as cell-based, hepatitis C virus (HCV). The following applies: Hepatitis C virus. The gist of the method: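 Huh-7 cells carrying a subgenomic HCV replicon (NS3-NS5b, firefly luciferase-neo fusion) were treated with compound for 72 h at 37°C, 5% CO2. EC50 derived from Bright-Glo luciferase signal as a proxy for HCV RNA; cell viability measured in parallel by Alamar blue.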

Where [3] appears, read: protease activity of full length NS34a, FRET peptide substrate, read-out: Activity IC50.
Setting [4] is: Huh-7, 72 h, read-out: Activity EC50 (μM) (EC50 luciferase readout), Huh-7 replicon cells, 72 h, single value, or second value of a pair x:y.
Where [5] appears, read: Huh-7, 72 h, Huh-7 replicon cells, 72 h, single value, or second value of a pair x:y, read-out: Activity EC50 (μM) (EC50 luciferase readout).

The structures appear in SMILES notation. Counter-ions that a name gives are not always drawn. Like-named read-outs stand apart in the source and are kept apart here. A value given as a limit tells only on which side of the number the result lay.

T1 sequence (P26663 1658-1711): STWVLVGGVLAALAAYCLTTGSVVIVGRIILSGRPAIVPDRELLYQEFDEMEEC
T1 sequence (P26663 1027-1657): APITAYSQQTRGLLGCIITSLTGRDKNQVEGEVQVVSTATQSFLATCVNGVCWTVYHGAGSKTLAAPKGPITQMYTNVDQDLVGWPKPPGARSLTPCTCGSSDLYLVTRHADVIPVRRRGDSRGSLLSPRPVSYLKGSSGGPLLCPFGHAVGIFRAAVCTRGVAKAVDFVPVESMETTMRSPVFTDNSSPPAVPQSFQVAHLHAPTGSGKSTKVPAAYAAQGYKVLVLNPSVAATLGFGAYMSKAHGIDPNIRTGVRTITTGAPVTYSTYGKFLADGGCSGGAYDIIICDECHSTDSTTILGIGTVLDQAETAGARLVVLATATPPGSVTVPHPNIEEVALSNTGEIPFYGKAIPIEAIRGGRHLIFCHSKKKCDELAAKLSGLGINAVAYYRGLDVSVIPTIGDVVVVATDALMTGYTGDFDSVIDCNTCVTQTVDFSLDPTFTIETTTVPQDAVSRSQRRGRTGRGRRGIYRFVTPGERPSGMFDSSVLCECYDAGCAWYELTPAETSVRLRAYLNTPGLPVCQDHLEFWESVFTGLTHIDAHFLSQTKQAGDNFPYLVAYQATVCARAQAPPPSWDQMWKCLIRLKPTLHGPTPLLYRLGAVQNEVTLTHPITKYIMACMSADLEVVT

In the case of `CC[C@@H](N[C@@H](C)CC(N)=O)c1ccc(Cl)c(Oc2ccc(C#N)c(OC)c2)c1F` [Example 210], the IC50 in assay [1] (setting [3]) stood at 0.16 µM. The EC50 in assay [2] (setting [4]) is 0.2 µM.
Turning to `CC[C@@H](N[C@@H](C)CC(N)=O)c1ccc(Cl)c(Oc2ccc(CC#N)cc2)c1F` [Example 211], the IC50 in assay [1] (setting [3]) was 0.072 µM. For the same compound, the EC50 in assay [2] (setting [4]) was found to be 0.066 µM.
In the case of `CC[C@@H](N[C@H](C)CC(N)=O)c1ccc(Cl)c(Oc2ccc(CC#N)cc2)c1F` [Example 212], the concentration for half-maximal inhibition (IC50) in assay [1] (setting [3]) is 0.82 µM. Further, the EC50 in assay [2] (setting [4]) was more than 10 µM.
As for `CC[C@@H](N[C@@H](C)CC(N)=O)c1ccc(Cl)c(Oc2ccc(C#N)c(F)c2)c1F` [Example 213], the concentration for half-maximal inhibition (IC50) in assay [1] (setting [3]) is 0.13 µM. The EC50 in assay [2] (setting [5]) turned out to be 5.2 µM.
For `CC[C@@H](N[C@@H](C)CC(N)=O)c1ccc(Cl)c(Oc2cccc(CNS(C)(=O)=O)c2)c1F` [Example 216], the IC50 in assay [1] (setting [3]) worked out at 0.97 µM. The EC50 in assay [2] (setting [5]) is more than 10 µM.
As to `CC[C@@H](N[C@@H](C)CC(N)=O)c1ccc(Cl)c(Oc2ccc(-c3cnco3)cc2)c1F` [Example 219], the 50% inhibitory concentration (IC50) in assay [1] (setting [3]) came out at 0.22 µM. Further, in assay [2] (setting [5]), the EC50 was found to be 0.32 µM.
Taken in the same sequence, the figures for `CC[C@@H](N)c1ccc(Cl)c(Oc2ccc(C#N)c(C)c2)c1F` [Example 221] were 0.43 µM and more than 30 µM.
The like results for `CC[C@@H](N[C@@H](C)CC(=O)NC1COC1)c1ccc(Cl)c(Oc2ccccc2)c1F` [Example 222] were, in that order, 0.37 µM and more than 10 µM.
In assay [1] (Activity IC50 (μM), protease activity of full length NS34a, FRET peptide substrate), `CC[C@@H](N[C@H](C)CC(=O)NCCN)c1ccc(Cl)c(Oc2ccccc2)c1F` [Example 223, (R)—N-(2-Amino-ethyl)-3-[(R)-1-(4-chloro-2-fluoro-3-phenoxy-phenyl)-propylamino]-butyramide.dihydrochloride] yielded an IC50 of 0.081 µM. Besides, the EC50 in assay [2] (setting [5]) is more than 30 µM.
As for `CC[C@@H](N[C@@H](C)CC(=O)NCCN)c1ccc(Cl)c(Oc2ccccc2)c1F` [Example 224], the inhibition at 0.01 µM in assay [1] turned out to be 65.5%. In addition, the EC50 in assay [2] (setting [5]) amounted to 0.0088 µM.
As for `Cc1cc(Oc2c(F)ccc(CNc3ccncc3)c2F)ccc1N` [Example 225B, [3-(4-Amino-3-methyl-phenoxy)-2,4-difluoro-benzyl]-pyridin-4-yl-amine. hydrochloride], the IC50 in assay [1] (setting [3]) was determined as 0.73 µM. In assay [2] (setting [5]), the EC50 worked out at 0.68 µM.
Taken in the same sequence, the figures for `CC[C@@H](N[C@@H](C)CC(N)=O)c1ccc(Cl)c(Oc2cccc(C#N)c2)c1F` [Example 226] were 0.2 µM and 2.9 µM.
Taken in the same sequence, the figures for `C#Cc1ccc(Oc2c(Cl)ccc([C@@H](CC)N[C@@H](C)CC(N)=O)c2F)cc1` [Example 230] were 0.17 µM and 0.48 µM.
Taken in the same sequence, the figures for `CC[C@@H](N[C@@H](C)CC(N)=O)c1ccc(Cl)c(Oc2ccc3c(c2)OCC3)c1F` [Example 233] were 0.11 µM and 0.079 µM.
As for `CC[C@@H](N[C@@H](C)CC(=O)NC1CNC1)c1ccc(Cl)c(Oc2ccccc2)c1F` [Example 234], in assay [1], the inhibition at 0.03 µM came out at 57%. The EC50 in assay [2] (setting [5]) was 7.3 µM.
Consider `CC[C@@H](N[C@@H](C)CC(=O)N1CCNCC1)c1ccc(Cl)c(Oc2ccccc2)c1F` [Example 235], for which the IC50 in assay [1] (setting [3]) amounted to 0.43 µM. The EC50 in assay [2] (setting [5]) was 0.6 µM.
For the compound `CC[C@@H](N[C@@H](C)CC(=O)N1CCCNCC1)c1ccc(Cl)c(Oc2ccccc2)c1F` [Example 236], the IC50 in assay [1] (IC50 values of 10-150 μM against the protease activity of the full length NS34a, or at least 40% inhibition of protease activity at a concentration of 100 μM) was 10 to 150 µM. Also, the inhibition at 3 µM in assay [1] (read-out: Activity % inhibition @ 3 μM, 3 μM compound) is 50%. In assay [2] (setting [5]), the 50% effective concentration (EC50) was 1.7 µM.
On to `CC[C@@H](N[C@@H](C)CC(N)=O)c1ccc(Cl)c(Oc2ccc(C#N)c(C)c2)c1F` [Example 237], for which the IC50 in assay [1] (setting [3]) is 0.087 µM. For the same compound, the EC50 in assay [2] (setting [5]) was determined as 0.031 µM.
For the compound `CC[C@@H](N[C@@H](C)CC(=O)NCCN)c1ccc(Cl)c(Oc2ccc(N)c(C)c2)c1F` [Example 238B, (S)—N-(2-Amino-ethyl)-3-{(R)-1-[3-(4-amino-3-methyl-phenoxy)-4-chloro-2-fluoro-phenyl]-propylamino}-butyramide], the inhibition at 0.03 µM in assay [1] turned out to be 58%. For the same compound, the EC50 was 0.03 µM in assay [2] (setting [5]) and 0.03 µM in assay [2] (Huh-7, replicon assay, set in line with previous observations, read-out: pre-determined EC50 set for the combination experiments).
Regarding `CC[C@@H](N[C@H](C)CC(=O)NCCN)c1ccc(Cl)c(Oc2ccc(N)c(C)c2)c1F` [Example 239], in assay [1], the inhibition at 0.03 µM was 41%. Further, the EC50 in assay [2] (setting [5]) was 0.97 µM.
As to `CC[C@@H](N[C@@H](C)CC(=O)NCCCN)c1ccc(Cl)c(Oc2ccccc2)c1F` [Example 240], the inhibition at 0.01 µM in assay [1] (0.01 μM compound) worked out at 42%. For the same compound, in assay [2] (setting [5]), the 50% effective concentration (EC50) is 8.9 µM.
In the case of `CC[C@@H](N[C@@H](C)CC(=O)NCCNC)c1ccc(Cl)c(Oc2ccccc2)c1F` [Example 241], the inhibition at 0.01 µM in assay [1] (0.01 μM compound) came to 47%. The concentration giving a half-maximal response (EC50) in assay [2] (setting [5]) is 0.98 µM.
Regarding `CC[C@@H](N[C@H](C)CC(=O)NCCN(C)C)c1ccc(Cl)c(Oc2ccccc2)c1F` [Example 242], the IC50 in assay [1] (setting [3]) was found to be 3.9 µM. Also, the EC50 in assay [2] (setting [5]) amounted to 0.89 µM.
The like results for `CC[C@@H](N[C@@H](C)CC(N)=O)c1ccc(Cl)c(Oc2ccc(NC(C)=O)c(C)c2)c1F` [Example 244, (S)-3-{(R)-1-[3-(4-Acetylamino-3-methyl-phenoxy)-4-chloro-2-fluoro-phenyl]-propylamino}-butyramide.hydrochloride] were, in that order, 0.47 µM and 0.099 µM.
Taken in the same sequence, the figures for `CC[C@@H](N[C@@H](C)CC(N)=O)c1ccc(Cl)c(Oc2ccc(C#N)nc2)c1F` [Example 246] were 0.17 µM and more than 10 µM.
Taken in the same sequence, the figures for `CC[C@@H](N[C@@H](C)CC(N)=O)c1ccc(Cl)c(Oc2ccc(C(N)=O)nc2)c1F` [Example 249] were 0.38 µM and 4.6 µM.
Consider `CC[C@@H](N[C@@H](C)CC(=O)N[C@H]1CCNC1)c1ccc(Cl)c(Oc2ccccc2)c1F` [Example 250], for which the IC50 in assay [1] (setting [3]) came to 0.95 µM. For the same compound, in assay [2] (setting [5]), the EC50 came out at 1 µM.
The like results for `CC[C@@H](N[C@@H](C)CC(=O)N[C@@H](C)CN)c1ccc(Cl)c(Oc2ccccc2)c1F` [Example 251] were, in that order, 0.061 µM and 1.8 µM.
The like results for `CC[C@@H](N[C@@H](C)CC(=O)NC(C)(C)CN)c1ccc(Cl)c(Oc2ccccc2)c1F` [Example 252] were, in that order, 1.9 µM and 0.88 µM.
The like results for `CC[C@@H](N[C@@H](C)CC(N)=O)c1ccc(Cl)c(Oc2ccc([N+](=O)[O-])c(OC)c2)c1F` [Example 253] were, in that order, 0.41 µM and 0.13 µM.
As for `CC[C@@H](N[C@@H](C)CC(N)=O)c1ccc(Cl)c(Oc2ccc(N)c(OC)c2)c1F` [Example 255], the IC50 in assay [1] (setting [3]) stood at 0.23 µM. Also, the EC50 in assay [2] (setting [5]) was 0.012 µM.
The like results for `CC[C@@H](N[C@@H](C)CC(N)=O)c1ccc(Cl)c(Oc2ccc(N)c(C(F)(F)F)c2)c1F` [Example 260] were, in that order, 0.17 µM and 0.043 µM.
Taken in the same sequence, the figures for `CC[C@@H](N[C@@H](C)CC(=O)N[C@@H]1CCNC1)c1ccc(Cl)c(Oc2ccccc2)c1F` [Example 263] were 0.39 µM and 1.6 µM.
The like results for `CC[C@@H](N[C@@H](C)CC(=O)NC1CCNCC1)c1ccc(Cl)c(Oc2ccccc2)c1F` [Example 264] were, in that order, 4.6 µM and 0.6 µM.
Take `CC[C@@H](N[C@@H](C)CC(=O)NCCNCc1ccccc1)c1ccc(Cl)c(Oc2ccccc2)c1F` [Example 265]: the IC50 in assay [1] (setting [3]) turned out to be 1.1 µM. Also, the EC50 in assay [2] (setting [5]) is 0.47 µM.

As usually defined, the IC50 is the concentration needed to halve the response being measured. The EC50 is the midpoint of the concentration-response curve. For orientation: inhibition means the change of the read-out against control, counted positive when it falls.

Source of the values: patent US20140288040A1, “SUBSTITUTED BENZYLAMINE COMPOUNDS, THEIR USE IN MEDICINE, AND IN PARTICULAR THE TREATMENT OF HEPATITIS C VIRUS (HCV) INFECTION” (ASTEX THERAPEUTICS LIMITED, priority 2011, published 2014).
